For 29 molecules, IC50 results are on record in patent US7879848B2, “Dipeptidyl Peptidase-IV inhibiting compounds, method of preparing the same, and pharmaceutical compositions containing the same as an active agent” (LG Life Sciences, Ltd., priority 2005, dated 2011).

For orientation: IC50 means the concentration that gives 50% inhibition. Low readings indicate greater potency, high ones weaker potency.

Each structure is given as a SMILES string.

The target of the test is T1, Dipeptidyl Peptidase-IV (DPP-IV) (Homo sapiens, UniProt P27487).
T1 construct: made in house
T1 sequence (P27487 whole entry): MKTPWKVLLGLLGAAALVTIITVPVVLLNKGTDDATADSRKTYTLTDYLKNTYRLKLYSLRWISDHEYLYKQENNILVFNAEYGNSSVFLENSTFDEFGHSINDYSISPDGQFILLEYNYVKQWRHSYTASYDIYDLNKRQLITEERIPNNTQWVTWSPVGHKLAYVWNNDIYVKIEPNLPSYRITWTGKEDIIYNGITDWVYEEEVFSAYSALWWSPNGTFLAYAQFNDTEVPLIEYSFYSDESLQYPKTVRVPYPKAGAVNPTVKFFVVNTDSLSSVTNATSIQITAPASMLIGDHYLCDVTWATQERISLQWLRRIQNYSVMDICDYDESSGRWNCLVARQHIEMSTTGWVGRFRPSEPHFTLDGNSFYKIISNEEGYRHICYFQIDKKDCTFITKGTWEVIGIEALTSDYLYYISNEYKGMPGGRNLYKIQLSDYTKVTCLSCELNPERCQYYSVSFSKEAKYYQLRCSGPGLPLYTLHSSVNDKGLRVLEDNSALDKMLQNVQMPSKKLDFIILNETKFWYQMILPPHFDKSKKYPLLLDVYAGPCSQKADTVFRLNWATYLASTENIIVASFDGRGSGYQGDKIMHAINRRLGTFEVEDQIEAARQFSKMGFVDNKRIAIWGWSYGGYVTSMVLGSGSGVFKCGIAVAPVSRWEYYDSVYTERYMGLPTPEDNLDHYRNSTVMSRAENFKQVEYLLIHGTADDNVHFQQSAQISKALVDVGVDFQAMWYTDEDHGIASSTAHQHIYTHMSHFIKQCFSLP
Put plainly: Measurement of DPP-IV Activity-Inhibiting Ability (fluorescent substrate Ac-Gly-Pro-AFC). It counts as biochemical. The settings on record: 25° C., 50 mmol HEPES (pH 7.4), DP-IV 7.1 nM, enzyme reaction for 1 hour. The source says: Dipeptidyl Peptidase-IV (DPP-IV), known as serine protease, was obtained by a modification of the known method (Tanaka T. et al, Proc. Natl. Acad. Sci. USA, (1994) 91, 3082-3086), which comprises cloning, purification by use of Baculo-Virus and activation steps. DPP-IV was used to test the pharmaceutical efficacy of candidate inhibitors as follows. The cloned DP-IV was expressed in Baculo-Virus, which was purified by nickel column and then subjected to dialysis. The inhibitors synthesized in Examples were tested to determine the binding activity there of using a fluorescent substrate, Ac-Gly-Pro-AFC. Enzyme reactions were conducted for various concentrations of inhibitors, using 100 µM Ac-Gly-Pro-AFC at 25° C. in a buffer solution containing 50 mmol HEPES (pH 7.4), with the concentration of DP-IV being 7.1 nM. […] As the fluorescent spectrometer, Spectra MAX GeminiXS fluorescent spectrometer from Molecular Device Co. was used and the excitation frequency and emission frequency were set to 400 nm and 505 nm, respectively.
`C[C@@H]1CCC(=O)N(C[C@@H](N)CC(=O)N2CCc3c(nc(-c4cccs4)nc3C(F)(F)F)C2)C1` [Ex. 62, (5R)-1-{(2S)-2-amino-4-oxo-4-[2-(2-thienyl)-4-(trifluoromethyl)-5,8-dihydropyrido[3,4-d]pyrimidin-7(6H)-yl]butyl}-5-methylpiperidin-2-one] showed a half-inhibitory concentration (IC50) of 32 nM. This lies in the double-digit nanomolar range.

Regarding `N[C@@H](CC(=O)N1CCc2c(nc(-c3ccncc3)nc2C(F)(F)F)C1)CN1CC(F)(F)CCC1=O` [Ex. 57, 1-{(2S)-2-amino-4-oxo-4-[2-pyridin-4-yl-4-(trifluoromethyl)-5,8-dihydropyrido[3,4-d]pyrimidin-7(6H)-yl]butyl}-5,5-difluoropiperidin-2-one], the IC50 is 48 nM.

`COCCc1nc2c(c(C(F)(F)F)n1)CCN(C(=O)C[C@H](N)CN1CC(F)(F)CCC1=O)C2` [Ex. 53, 1-{(2S)-2-amino-4-[2-(2-methoxyethyl)-4-(trifluoromethyl)-5,8-dihydropyrido[3,4-d]pyrimidin-7(6H)-yl]-4-oxobutyl}-5,5-difluoropiperidin-2-one] yielded an IC50 of 26 nM. This IC50 is about 1.8-fold lower than that of the molecule before.

In the case of `N[C@@H](CC(=O)N1CCn2c(nnc2C(F)(F)F)C1)CN1CCC(C(F)(F)F)CC1=O` (stereo partly drawn) [Ex. 14, 1-[2S-amino-4-oxo-4-(3-trifluoromethyl-5,6-dihydro-8H-[1,2,4]triazolo[4,3-a]pyrazin-7-yl)-butyl]-4-trifluoromethyl-piperidin-2-one], the IC50 was found to be 217 nM. This IC50 is about 8.3-fold higher than that of the molecule before.

Molecule `CC1CCN(C[C@@H](N)CC(=O)N2CCn3c(nnc3C(F)(F)F)C2)C(=O)C1` (stereo partly drawn) [Ex. 10, 1-[2S-amino-4-oxo-4-(3-trifluoromethyl-5,6-dihydro-8H-[1,2,4]triazolo[4,3-a]pyrazin-7-yl)-butyl]-4-methyl-piperidin-2-one] displayed a half-inhibitory concentration (IC50) of 141 nM.

With `N[C@@H](CC(=O)N1CCc2c(nc(-c3ccc(F)c(F)c3)nc2C(F)(F)F)C1)CN1CC(F)(F)CCC1=O` [Ex. 35, 1-{(2S)-2-amino-4-[2-(3,4-difluorophenyl)-4-(trifluoromethyl)-5,8-dihydropyrido[3,4-d]pyrimidin-7(6H)-yl]-4-oxobutyl}-5,5-difluoropiperidin-2-one], the midpoint of inhibition, the IC50, lay at 51 nM.

As to `CC(C)c1nc2c(c(C(F)(F)F)n1)CCN(C(=O)C[C@H](N)CN1C[C@H](C)OCC1=O)C2` [Ex. 76, (6S)-4-{(2S)-2-amino-4-[2-isopropyl-4-(trifluoromethyl)-5,8-dihydropyrido[3,4-d]pyrimidin-7(6H)-yl]-4-oxobutyl}-6-methylmorpholine-3-one], the IC50 came out at 30 nM.

Molecule `N[C@@H](CC(=O)N1CCc2sc(C(F)(F)F)nc2C1)CN1CC(F)(F)CCC1=O` [Ex. 51, 1-{(2S)-2-amino-4-oxo-4-[2-(trifluoromethyl)-6,7-dihydro[1,3]thiazolo[4,5,c]pyridin-5(4H)-yl]butyl}-5,5-difluoropiperidin-2-one] yielded a 50% inhibitory concentration (IC50) of 114 nM.

`C[C@H]1CN(C[C@@H](N)CC(=O)N2CCc3c(nc(-c4ccc(F)c(F)c4)nc3C(F)(F)F)C2)C(=O)CO1` [Ex. 36] showed an IC50 of 33 nM.

`N[C@@H](CC(=O)N1CCc2c(cccc2C(F)(F)F)C1)CN1CC(F)(F)CCC1=O` [Ex. 28, 1-{(2S)-2-amino-4-oxo-4-[5-(trifluoromethyl)-3,4-dihydroisoquinolin-2(1H)-yl]butyl}5,5-difluoropiperidin-2-one] had a half-inhibitory concentration (IC50) of 1160 nM.

For `C[C@H]1CN(C[C@@H](N)CC(=O)N2CCc3c(nc(-c4ccc(F)cc4)nc3C(F)(F)F)C2)C(=O)CO1` [Ex. 31], half-maximal inhibition (IC50) was put at 25 nM.

`C[C@@H]1CCC(=O)N(C[C@@H](N)CC(=O)N2CCc3c(nc(-c4ccc(F)c(F)c4)nc3C(F)(F)F)C2)C1` [Ex. 37, (5R)-1-{(2S)-2-amino-4-[2-(3,4-difluorophenyl)-4-(trifluoromethyl)-5,8-dihydropyrido[3,4-d]pyrimidin-7(6H)-yl]-4-oxobutyl}-5-methylpiperidin-2-one] showed an IC50 of 36 nM.

`C[C@@H]1CCC(=O)N(C[C@@H](N)CC(=O)N2CCc3c(nc(-c4ccsc4)nc3C(F)(F)F)C2)C1` [Ex. 60, (5R)-1-{(2S)-2-amino-4-oxo-4-[2-(3-thienyl)-4-(trifluoromethyl)-5,8-dihydropyrido[3,4-d]pyrimidin-7(6H)-yl]butyl}-5-methylpiperidin-2-one] returned an IC50 of 61 nM.

For `C[C@@H]1CCC(=O)N(C[C@@H](N)CC(=O)N2CCc3c(nc(-c4ccc[nH]4)nc3C(F)(F)F)C2)C1` [Ex. 68, (5R)-1-{(2S)-2-amino-4-oxo-4-[2-(1H-pyrrol-2-yl)-4-(trifluoromethyl)-5,8-dihydropyrido[3,4-d]pyrimidin-7(6H)-yl]butyl}-5-methylpiperidin-2-one], 72 nM corresponded to half-maximal inhibition (IC50).

`C[C@H]1CN(C[C@@H](N)CC(=O)N2CCc3sc(C4CCOCC4)nc3C2)C(=O)CO1` [Ex. 48, (6S)-4-{(2R)-2-amino-4-oxo-4-[2-(tetrahydro-2H-pyran-4-yl)-6,7-dihydro[1,3]thiazolo[4,5,c]pyridin-5(4H)-yl]butyl}-6-methylmorpholine-3-one] displayed an IC50 of 357 nM.

`N[C@@H](CC(=O)N1CCc2c(noc2C(F)(F)F)C1)CN1CCCCC1=O` [Ex. 19, 1-[2S-amino-4-oxo-4-(3-trifluoromethyl-4,5-dihydro-7H-isooxazolo[3,4-c]pyridin-6-yl)butyl]-piperidin-2-one] yielded a concentration for half-maximal inhibition (IC50) of 712 nM.

In the case of `N[C@@H](CC(=O)N1CCn2c(nnc2C(F)(F)F)C1)CN1CC(F)(F)CCC1=O` [Ex. 11, 1-[2S-amino-4-oxo-4-(3-trifluoromethyl-5,6-dihydro-8H-[1,2,4]triazolo[4,3-a]pyrazin-7-yl)-butyl]-5,5-difluoro-piperidin-2-one], the half-inhibitory concentration (IC50) is 75 nM. Compared with the last molecule, the IC50 is about 9.5-fold lower.

On to `C[C@H]1CN(C[C@@H](N)CC(=O)N2CCc3c(nc(C(C)(C)C)nc3C(F)(F)F)C2)C(=O)CO1` [Ex. 93], for which the half-inhibitory concentration (IC50) was 55 nM.

As for `COCCc1nc2c(c(C(F)(F)F)n1)CCN(C(=O)C[C@H](N)CN1C[C@H](C)CCC1=O)C2` [Ex. 52, (5R)-1-{(2S)-2-amino-4-[2-(2-methoxyethyl)-4-(trifluoromethyl)-5,8-dihydropyrido[3,4-d]pyrimidin-7(6H)-yl]-4-oxobutyl}-5-methylpiperidin-2-one], 18 nM corresponded to half-maximal inhibition (IC50).

`CC1CCN(C[C@@H](N)CC(=O)N2CCc3c(nc(-c4ccoc4)nc3C(F)(F)F)C2)C(=O)C1` (stereo partly drawn) [Ex. 111, 1-{(2S)-2-amino-4-[2-(3-furyl)-4-(trifluoromethyl)-5,8-dihydropyrido[3,4-d]pyrimidin-7(6H)-yl]-4-oxobutyl}-4-methylpiperidin-2-one] had a half-inhibitory concentration (IC50) of 70 nM. Compared with the last molecule, the IC50 is about 3.9-fold higher.

Consider `C[C@@H]1CCC(=O)N(C[C@@H](N)CC(=O)N2CCc3c(ncnc3C(F)(F)F)C2)C1` [Ex. 21], for which the concentration for half-maximal inhibition (IC50) was determined as 24 nM.

Molecule `N[C@@H](CC(=O)N1CCc2sc(-c3ccc(F)cc3)nc2C1)CN1CC(F)(F)CCC1=O` [Ex. 46, 1-{(2S)-2-amino-4-[2-(4-fluorophenyl)-6,7-dihydro[1,3]thiazolo[4,5,c]pyridin-5(4H)-yl]-4-oxobutyl}-5,5-difluoropiperidin-2-one] registered an IC50 of 22 nM.

Molecule `N[C@@H](CC(=O)N1CCc2c(nc(-c3ccoc3)nc2C(F)(F)F)C1)CN1CC(C(F)(F)F)CC1=O` (stereo partly drawn) [Ex. 109, 1-{(2S)-2-amino-4-[2-(3-furyl)-4-(trifluoromethyl)-5,8-dihydropyrido[3,4-d]pyrimidin-7(6H)-yl]-4-oxobutyl}-4-(trifluoromethyl)pyrrolidin-2-one] gave an IC50 of 55 nM.

In the case of `N[C@@H](CC(=O)N1CCc2c(C(F)(F)F)n[nH]c2C1)CN1CCCCC1=O` [Ex. 20, 1-[2S-amino-4-oxo-4-(3-trifluoromethyl-1,4,5,7-tetrahydro-pyrazolo[3,4-c]pyridin-6-yl)-butyl]-piperidin-2-one], the half-maximal inhibitory concentration (IC50) was found to be 268 nM.

As for `C[C@H]1CN(C[C@@H](N)CC(=O)N2CCc3sc(-c4ccc(C(F)(F)F)cc4)nc3C2)C(=O)CO1` [Ex. 42, (6S)-4-[(2S)-2-amino-4-oxo-4-{2-[4-(trifluoromethyl)phenyl]-6,7-dihydro[1,3]thiazolo[4,5,c]pyridin-5(4H)-yl}butyl]-6-methylmorpholine-3-one], the IC50 came out at 14 nM.

For the molecule `CC1CN(C[C@@H](N)CC(=O)N2CCc3c(nc(C(F)(F)F)nc3C(F)(F)F)C2)C(=O)CS1` (stereo partly drawn) [Ex. 91, 4-{(2S)-2-amino-4-[2,4-bis(trifluoromethyl)-5,8-dihydropyrido[3,4-d]pyrimidin-7(6H)-yl]-4-oxobutyl}-6-methylthiomorpholin-3-one], the half-inhibitory concentration (IC50) was found to be 85 nM.

With `C[C@@H]1CCC(=O)N(C[C@@H](N)CC(=O)N2CCc3c(nc(-c4ccco4)nc3C(F)(F)F)C2)C1` [Ex. 64, (5R)-1-{(2S)-2-amino-4-[2-(2-furyl)-4-(trifluoromethyl)-5,8-dihydropyrido[3,4-d]pyrimidin-7(6H)-yl]-4-oxobutyl}-5-methylpiperidin-2-one], the IC50 came out at 5 nM. Against the preceding molecule, the IC50 is about 17-fold lower.

`C[C@H]1CN(C[C@@H](N)CC(=O)N2CCc3sc(-c4ccc(F)cc4)nc3C2)C(=O)CO1` [Ex. 45, (6S)-4-{(2S)-2-amino-4-oxo-4-[2-(4-fluorophenyl)6,7-dihydro[1,3]thiazolo[4,5,c]pyridin-5(4H)-yl]butyl}-6-methylmorpholine-3-one] showed an IC50 of 22 nM.

The molecule `CC1=CC(=O)N(C[C@@H](N)CC(=O)N2CCn3c(nnc3C(F)(F)F)C2)C1` [Ex. 9, 1-[2S-amino-4-oxo-4-(3-trifluoromethyl-5,6-dihydro-8H-[1,2,4]triazolo[4,3-a]pyrazin-7-yl)-butyl]-4-methyl-1,5-dihydro-pyrrol-2-one] had an IC50 of 201 nM.
